Data from patent US4400387A, “Indolizine derivatives and uses in therapeutics” (S. A. Labaz-Sanofi N.V., priority 1979, dated 1983).

Experiments:
[1] = Acute toxicity tests in mice; assay type: in vivo; details: 20 mg/kg by intravenous route
Description: Acute toxicity tests were performed in mice with compounds of the invention.

[2] = biological target: T1, adenosine deaminase obtained from calf intestine (Bos taurus, UniProt P56658); test: Inhibition of the action of adenosine deaminase in vitro (decrease in absorbance at 265 nm); assay type: biochemical; details: compound at a concentration of 10^-6 M
T1 construct: purchased
T1 sequence (P56658 1-363): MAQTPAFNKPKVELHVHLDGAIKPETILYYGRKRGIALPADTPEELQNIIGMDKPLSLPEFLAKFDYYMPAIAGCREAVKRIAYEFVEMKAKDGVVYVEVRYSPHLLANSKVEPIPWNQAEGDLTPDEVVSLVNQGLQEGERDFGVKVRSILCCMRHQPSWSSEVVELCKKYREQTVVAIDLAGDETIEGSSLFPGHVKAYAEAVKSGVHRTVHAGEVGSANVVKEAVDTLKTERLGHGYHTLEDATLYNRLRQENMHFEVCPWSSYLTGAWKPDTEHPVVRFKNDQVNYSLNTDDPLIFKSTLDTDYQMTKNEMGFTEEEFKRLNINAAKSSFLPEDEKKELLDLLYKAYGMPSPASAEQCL

[3] = biological target: T2, adenosine deaminase in ascites cells (Krebs II) (Mus musculus, UniProt P03958); test: Inhibition of adenosine deamination in intact ascites cells (14C adenosine); assay type: cell-based; details: 14C adenosine 5.10^-5 M, read-out: concentration at which deamination of adenosine by ascites cells was 50% inhibited (converted)
T2 construct: tested in intact cells by incubating ascites cells (Krebs II); endogenous in cells; host or cells: Krebs II ascites cells
T2 sequence (P03958 1-352): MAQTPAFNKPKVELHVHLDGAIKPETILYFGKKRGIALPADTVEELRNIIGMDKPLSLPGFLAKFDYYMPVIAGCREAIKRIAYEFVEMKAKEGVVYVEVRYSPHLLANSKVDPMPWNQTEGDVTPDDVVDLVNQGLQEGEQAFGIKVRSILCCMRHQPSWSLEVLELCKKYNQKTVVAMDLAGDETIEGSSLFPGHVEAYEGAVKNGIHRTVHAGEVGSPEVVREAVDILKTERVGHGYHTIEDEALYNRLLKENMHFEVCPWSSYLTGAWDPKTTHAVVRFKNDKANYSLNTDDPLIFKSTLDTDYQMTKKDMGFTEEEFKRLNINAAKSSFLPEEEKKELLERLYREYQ
Description: The inhibition of the action of adenosine deaminase by these two above-cited compounds has also been tested in intact cells by incubating ascites cells (Krebs II) in the presence of ^14 C adenosine at a concentration of 5.10^-5 M and by measuring the formation of inosine and hypoxanthine ^14 C. The deamination of adenosine due to the ascites cells was 50% inhibited in the presence of 2.10^-6 M of 1-bromo-2-phenyl-3-(3-bromo-4-hydroxy-benzoyl)-indolizine and of 10^-6 M of 1-bromo-2-(4-fluoro-phenyl)-3-(3-bromo-4-hydroxy-benzoyl)-indolizine.

[4] = biological target: T1, adenosine deaminase obtained from calf intestine; test: Inhibition of the action of adenosine deaminase in vitro (decrease in absorbance at 265 nm); assay type: biochemical; details: pH 7.4, 30° C.
Description: This test was performed with adenosine deaminase obtained from calf intestine.
(§1) The experimental procedure described hereunder was used:
In the absorption cell the following solutions were introduced:
2.7 ml of a 0.1 molar phosphate buffer solution (pH=7.4)
0.3 ml of a 10^-4 or 5.10^-4 molar solution of adenosine in the phosphate buffer solution (final concentration in adenosine: 10^-5 or 5.10^-5 mol) 0.01 ml of a 3.10^-3 molar ethanolic solution of the compound to be studied (about 10 milliunits)
The contents of the absorption cell were allowed to incubate for 2 minutes and then the enzymatic reaction was started by adding 0.03 ml of a commercial adenosine deaminase solution having a known concentration in enzyme. The reaction was performed at 30° C. and followed by spectrophotometric recording of the decrease in absorbance at 265 nm due to the transformation of adenosine into inosine by means of adenosine deaminase. This enzymatic reaction can be represented by the following equation: [formula]
The same measurements were performed with a control solution containing all the ingredients referred to above except the compound being studied. Curves were then plotted representing the decrease in absorbance in comparison with time obtained on the one hand with the solution containing the inhibitor and on the other with the control solution.
The slope of both curves was measured and expressed in the number of mols of inosine formed in one minute. After that, the percent of inhibition of the activity of adenosine deaminase provoked by a compound of the invention was calculated.

[5] = biological target: T3, xanthine oxidase found in milk (Bos taurus, UniProt P80457); test: Inhibition of the action of xanthine oxidase in vitro (U.V. spectrophotometry, formation of uric acid from hypoxanthine); assay type: biochemical; details: compound at 10^-5 M; hypoxanthine substrate, pH 7.4, 37° C.
T3 construct: purchased
T3 sequence (P80457 whole entry): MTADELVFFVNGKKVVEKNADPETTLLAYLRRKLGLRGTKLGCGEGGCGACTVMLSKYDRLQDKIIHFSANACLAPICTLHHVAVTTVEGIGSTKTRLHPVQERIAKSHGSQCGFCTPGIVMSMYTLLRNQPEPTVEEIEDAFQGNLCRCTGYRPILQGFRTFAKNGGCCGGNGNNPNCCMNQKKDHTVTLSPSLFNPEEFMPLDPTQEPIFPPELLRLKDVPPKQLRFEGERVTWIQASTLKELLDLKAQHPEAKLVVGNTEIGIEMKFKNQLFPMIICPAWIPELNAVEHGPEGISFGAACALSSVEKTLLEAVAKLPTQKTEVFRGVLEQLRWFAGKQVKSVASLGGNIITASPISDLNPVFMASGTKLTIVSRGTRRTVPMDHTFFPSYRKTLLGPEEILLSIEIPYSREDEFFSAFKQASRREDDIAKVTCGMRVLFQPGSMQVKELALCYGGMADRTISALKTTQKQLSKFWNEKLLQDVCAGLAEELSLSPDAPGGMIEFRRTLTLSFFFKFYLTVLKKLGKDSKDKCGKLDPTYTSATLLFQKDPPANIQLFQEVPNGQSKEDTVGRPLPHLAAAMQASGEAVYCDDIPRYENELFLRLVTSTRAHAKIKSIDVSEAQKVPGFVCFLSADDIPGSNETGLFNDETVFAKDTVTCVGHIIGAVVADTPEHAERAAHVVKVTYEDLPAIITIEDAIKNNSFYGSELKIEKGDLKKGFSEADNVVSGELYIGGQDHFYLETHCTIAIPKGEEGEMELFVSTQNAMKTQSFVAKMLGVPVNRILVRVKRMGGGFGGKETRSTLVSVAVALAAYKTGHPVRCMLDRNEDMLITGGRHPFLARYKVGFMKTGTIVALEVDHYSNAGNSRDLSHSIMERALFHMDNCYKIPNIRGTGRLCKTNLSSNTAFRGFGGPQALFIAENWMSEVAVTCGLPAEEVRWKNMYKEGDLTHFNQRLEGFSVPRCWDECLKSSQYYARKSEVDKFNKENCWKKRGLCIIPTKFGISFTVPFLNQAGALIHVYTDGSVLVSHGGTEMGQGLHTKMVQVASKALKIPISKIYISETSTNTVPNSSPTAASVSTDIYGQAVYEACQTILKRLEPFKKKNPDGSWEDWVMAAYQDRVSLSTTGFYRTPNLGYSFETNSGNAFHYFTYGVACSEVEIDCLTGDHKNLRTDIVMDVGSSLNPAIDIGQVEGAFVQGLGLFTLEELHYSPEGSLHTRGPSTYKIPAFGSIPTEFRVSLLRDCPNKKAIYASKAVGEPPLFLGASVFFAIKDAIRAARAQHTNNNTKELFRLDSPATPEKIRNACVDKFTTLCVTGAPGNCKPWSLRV
Description: This trial was performed with xanthine oxidase found in milk. The activity of the enzymatic preparation was measured by following the formation of uric acid starting from hypoxanthine in the presence of oxygen and of a phosphate buffer solution.
as §1
In the absorption cell, the following solutions were introduced:
1.5 ml of a 0.1 molar phosphate buffer solution (pH=7.4) saturated with oxygen.
0.3 ml of a 1 m molar solution of ethylene diamine tetraacetate.
0.01 ml of a commercial xanthine oxidase solution having a known concentration in enzyme.
0.01 ml of a 3.10^-3 molar ethanolic solution of the compound to be tested.
The contents of the absorption cell were allowed to incubate for 2 minutes and then the enzymatic reaction was started by adding 0.3 ml of a 10^-3 molar solution of hypoxanthine to the absorption cell. The reaction was followed by spectrophotometric recording of the oxidation rate of hypoxanthine at 293 nm and at 37° C. The optical density was automatically registered. The same measurements were performed with a control solution containing all the ingredients referred to above except the compound being tested.
In this way, a curve representing the variation in optical density in comparison with time was obtained with the solution containing the inhibitor on the one hand and devoid of inhibitor on the other. The slope of both curves was measured and expressed in the number of mols of uric acid formed in one minute. Thus, it was possible to compare the values obtained and calculate, in percent, the inhibition of the activity of xanthine oxidase provoked by a compound of the invention.

[6] = biological target: T3, xanthine oxidase found in milk; test: as above; assay type: biochemical; details: compound at a concentration of 10^-6 M
[7] = Uricosuric action in humans after a single oral dose; assay type: in vivo; details: single oral dose 300 mg
Description: The uricosuric action was determined in humans after a single dose of 300 mg of 2-ethyl-3-(3,5-dibromo-4-hydroxy-benzoyl)-indolizine by oral route.

HSV-1 (KOS) = test: Herpetic skin lesions and mortality of nu/nu mice inoculated with HSV-1 (KOS), topical Ara-A and/or compound; assay type: in vivo; details: topical 1% in dimethylsulfoxide, 4 times daily days 0-4
Description: This test was carried out in order to determine the effects of adenine arabinoside (Ara-A) and compounds of the invention on the incidence of herpetic skin lesions and mortality of nu/nu mice inoculated with HSV-1 (KOS). Athymic nude (nu/nu) mice, 20 to 25 days old, were inoculated intracutaneously with HSV-1 (KOS) at about 10^4.5 PFU (plaque-forming units) per mouse. Ara-A and/or a compound of the invention were applied topically at 1% in dimethylsulfoxide, 4 times daily on days 0, 1, 2, 3 and 4. The number of mice with epidermal lesion (necrosis of at least 5 to 10 mm long) per total number of mice alive was registered.

O=C(c1ccc(O)c(Br)c1)c1c(-c2ccc(F)cc2)c(Br)c2ccccn12 [4-Fluoro-phenyl Br Br H, 1-Bromo-2-(4-fluoro-phenyl)-3-(3-bromo-4-hydroxy-benzoyl)-indolizine]
deaths after 14 days [1]: on death was registered | inhibition at 1 µM [2]: 86% | IC50 [3]: 1 µM | Inhibition of the action of adenosine deaminase in vitro (in %) At 5.10^-5 M adenosine [4]: 94% | Inhibition of the action of adenosine deaminase in vitro (in %) At 10^-5 M adenosine [4]: 100%

O=C(c1cc(Br)c(O)c(Br)c1)c1c(-c2ccccc2)c(Br)c2ccccn12 [Phenyl Br Br Br, 1-Bromo-2-phenyl-3-(3,5-dibromo-4-hydroxy-benzoyl)-indolizine]
inhibition at 10 µM [5]: 48% | Inhibition of the action of adenosine deaminase in vitro (in %) At 5.10^-5 M adenosine [4]: 22% | Inhibition of the action of adenosine deaminase in vitro (in %) At 10^-5 M adenosine [4]: 53%

CCc1cc2ccccn2c1C(=O)c1cc(Cl)c(O)c(Cl)c1 [Ethyl H Cl Cl, 2-Ethyl-3-(3,5-dichloro-4-hydroxy-benzoyl)-indolizine]
inhibition at 10 µM [5]: 98%

CC(C)c1cc2ccccn2c1C(=O)c1cc(Br)c(O)c(Br)c1 [Isopropyl H Br Br, 2-Isopropyl-3-(3,5-dibromo-4-hydroxy-benzoyl)-indolizine]
inhibition at 1 µM [6]: 84% | inhibition at 10 µM [5]: 99%

Cc1cc2ccccn2c1C(=O)c1cc(Br)c(O)c(Br)c1 [Methyl H Br Br, 2-Methyl-3-(3,5-dibromo-4-hydroxybenzoyl)-indolizine]
inhibition at 10 µM [5]: 91%

CC(C)c1cc2ccccn2c1C(=O)c1ccc(O)c(Cl)c1 [Isopropyl H H Cl, 2-Isopropyl-3-(3-chloro-4-hydroxy-benzoyl)-indolizine]
inhibition at 10 µM [5]: 88%

CCCc1c(Br)c2ccccn2c1C(=O)c1ccc(O)c(Br)c1 [n-Propyl Br Br H, 1-Bromo-2-n-propyl-3-(3-bromo-4-hydroxy-benzoyl)-indolizine]
inhibition at 10 µM [5]: 97%

CC(C)c1cc2ccccn2c1C(=O)c1cc(Cl)c(O)c(Cl)c1 [Isopropyl H Cl Cl, 2-Isopropyl-3-(3,5-dichloro-4-hydroxy-benzoyl)-indolizine]
inhibition at 10 µM [5]: 96% | Inhibition of the action of adenosine deaminase in vitro (in %) At 5.10^-5 M adenosine [4]: 76%

CCc1cc2ccccn2c1C(=O)c1cc(Br)c(O)c(Br)c1 [Ethyl H Br Br, 2-Ethyl-3-(3,5-dibromo-4-hydroxy-benzoyl)-indolizine]
inhibition at 10 µM [5]: 98% | Tmax ([7]; human, plasma, read-out: time of highest plasmatic level): 5 h | mean increase of urinary excretion of uric acid in 24 hours ([7]; 24 hours): 22% | lowering of uricemia ([7]; by the 5th hour): 9% | increase of urinary excretion of uric acid ([7]; period between 12th and 24th hour): 40%

O=C(c1ccc(O)c(Br)c1)c1c(-c2ccc(Br)cc2)cc2ccccn12 [4-Bromo-phenyl H H Br, 2-(4-Bromo-phenyl)-3-(3-bromo-4-hydroxy-benzoyl)-indolizine]
inhibition at 10 µM [5]: 22%

CCc1c(Cl)c2ccccn2c1C(=O)c1cc(Br)c(O)c(Br)c1 [Ethyl Cl Br Br, 1-Chloro-2-ethyl-3-(3,5-dibromo-4-hydroxy-benzoyl)-indolizine]
inhibition at 10 µM [5]: 64%

Cc1ccc(-c2c(Br)c3ccccn3c2C(=O)c2ccc(O)cc2)cc1 [4-Methyl-phenyl Br H H, 1-Bromo-2-(4-methyl-phenyl)-3-(4-hydroxy-benzoyl)-indolizine]
inhibition at 10 µM [5]: 48%

O=C(c1ccc(O)c(Br)c1)c1c(-c2ccccc2)c(Br)c2ccccn12 [Phenyl Br Br H, 1-Bromo-2-phenyl-3-(3-bromo-4-hydroxy-benzoyl)-indolizine]
effect on the antiviral (anti-herpetic) activity of adenine arabinoside (Ara-A) (HSV-1 (KOS)): potentiates the antiviral activity of adenine arabinoside | deaths after 14 days [1]: on death was registered | inhibition at 1 µM [2]: 80% | IC50 [3]: 2 µM | Inhibition of the action of adenosine deaminase in vitro (in %) At 5.10^-5 M adenosine [4]: 88% | Inhibition of the action of adenosine deaminase in vitro (in %) At 10^-5 M adenosine [4]: 100%

O=C(c1cc(Br)c(O)c(Br)c1)c1c(-c2ccc(Br)cc2)cc2ccccn12 [4-Bromo-phenyl H Br Br, 2-(4-Bromo-phenyl)-3-(3,5-dibromo-4-hydroxy-benzoyl)-indolizine]
inhibition at 10 µM [5]: 23%

CCc1cc2ccccn2c1C(=O)c1ccc(O)c(OC)c1 [Ethyl H H OCH3, 2-Ethyl-2-(3-methoxy-4-hydroxy-benzoyl)-indolizine]
inhibition at 10 µM [5]: 57%
